Entries after “also recorded” stand apart in the source; their conditions may differ.
Legend:
Format in all cases: in vivo
[1] = tasting of aqueous potassium chloride solutions with or without mogroside
Description: When tasted by volunteers, the solution without mogroside was bitter, unpleasant, and generally considered undrinkable.
(§1) Additional examples of the use of Mogroside V to alter the flavors of various consumables, and the experimental results obtained, are summarized in Table I: […]

[2] = tasting of soy milk with mogroside; details: plain + 200 ppm mogroside (plain: beany)
Description: as §1

[3] = tasting of cocoa powder with mogroside; details: plain + 200 ppm mogroside (plain: bitter)
Description: as §1

[4] = tasting of Powerade sports drink with KCl and mogroside
Description: as §1

[5] = tasting of acai products with mogroside
Description: Acai berries have a bitter off-flavor, which has limited the use of acai as a natural anti-oxidant. Prior methods for minimizing the bitterness of acai have included diluting the juice, adding sugar, or mixing acai with other, sweeter berries. […] The flat, tannic notes of acai were masked, and the puree flavor changed to a semi-sweet berry flavor with large, juicy top notes. The preferred concentration range was ˜200 to ˜500 ppm mogroside. […] Possible uses include any products that contain acai berry ingredients, including for example raw berries, purees, powders, flavorings, juices, ice cream (with or without glycerin), fruit fillings, smoothies, yogurts, teas, coffee, beer, salad dressing, marinades, candies, wines, liquors, other alcoholic beverages, and the like.
as §1

[6] = tasting of Robusta coffee with chicory with mogroside; details: 2 g/250 g water, plain + 200 ppm mogroside
Description: as §1

[7] = tasting of Hominex amino acid beverage with mogroside; details: for off-flavors, chalkiness, pastiness and bitterness compared to the unmodified beverage / mogroside-associated off flavor: Hominex suspension
Method: For example, we added mogroside to a commercial amino acid beverage (Hominex™) at a rate of 200-1000 ppm, preferably 300-800 ppm. The Hominex™ suspension, which contains free amino acids, vitamins, minerals, and other nutrients, was prepared in accordance with the manufacturer's directions. Mogroside was then added to the dissolved medical food drink. The suspension was allowed to equilibrate for about one minute before tasting. Compared to the unmodified beverage, there was a marked reduction in the off-flavors, the chalkiness, the pastiness, and the bitterness. […] Unless additional flavors are also added, mogroside's own off-flavor can limit its use at higher concentrations. Conversely, at least for the samples we have tested to date, there may be no compelling reason to use mogroside at such higher levels anyway. Using mogroside in free amino acid-based foods can reduce or eliminate the bitter and unpleasant flavors, making them much more palatable, and enhancing patient compliance. Similar results are expected for improving the palatability of other medical foods.
as §1

[8] = tasting of Ruby Red grapefruit with mogroside
Description: as §1

[9] = tasting of glycerine-water mixtures with mogroside
Description: Glycerine causes an astringent or biting taste in the back of the mouth when added to foods at levels over a few percent by weight. […] Glycerine may then be used as a humectant in intermediate-moisture human and pet foods. Adding a preferred concentration of about 200 ppm mogroside reduces or even eliminates the glycerine “bite.” Foods such as beans, pasta, rice, and bulgur can be pre-cooked in aqueous solutions of glycerine (˜2 to ˜30% by weight), containing ˜25 to ˜500 ppm mogroside. The products are then optionally dried to a water activity (aw) less than ˜0.7. The resulting materials can be rehydrated quickly with no bitter flavor.
as §1

[10] = tasting of lima beans with mogroside in oil; details: plain + 100 ppm mogroside in oil (plain: beany)
Description: as §1

[11] = tasting of pomegranate juice with mogroside; details: plain + 200 ppm mogroside (plain: tannic)
Description: as §1

[12] = tasting of turnip greens with mogroside in oil; details: plain + 100 ppm mogroside in oil (plain: bitter)
Description: as §1

[13] = blind tasting of poached beef liver puree
Method: In another experiment, mogroside was added to a beef liver puree, and the puree was poached to an internal temperature of 74° C. A control puree with no mogroside was identically cooked. Six individuals tasted the samples blind and could easily differentiate them.

[14] = tasting of acai ice cream with glycerine and mogroside
Description: as §1

[15] = tasting of coconut water with mogroside; details: plain + 200 ppm mogroside (plain: bitter)
Description: as §1

[16] = difference and preference testing of a cocoa powder drink with 400 ppm mogroside
Description: as §1

[17] = tasting of Hominex amino acid beverage with mogroside; details: 9.3 g Hominex/100 ml water + 100 ppm mogroside (plain: bitter, chalky, floury)
[18] = cocoa powder drink + 400 ppm mogroside vs control, number of tasters

With mogroside the perceived taste ([1]; 2% aqueous potassium chloride with 250 ppm mogroside, tasted by volunteers, without mogroside bitter, undrinkable) was “slightly salty, otherwise bland, and far more drinkable”, the flavor ([1]; KCl 2% + 250 ppm mogroside (2% alone: bitter)) was “salty” and the flavor ([1]; KCl 2.5% + 250 ppm mogroside) was “salty”. The flavor ([1]; KCl 3.0% + 250 ppm mogroside) was “slight bitterness”, the flavor [2] was “decreased beany flavor” and the flavor [3] was “chocolate”. For the same substance, the flavor ([4]; plain + 2% KCl + mogroside (without mogroside: bitter)) was “salty”, the flavor ([4]; plain + 3% KCl + mogroside (without mogroside: bitter)) was “slightly bitter, salty” and the flavor ([5]; Acai puree 12% Brix, plain + 500 ppm mogroside (plain: tannic)) was “berry-semi-sweet/fruity”. The flavor ([5]; Acai, 100 ppm mogroside (control: bitter, tannic)) was “bland, slight tannic”, the flavor ([5]; Acai, 200 ppm mogroside) was “fruity, berry semi-sweet” and the flavor ([5]; Acai, 300 ppm mogroside) was “tannic, little flavor at all”. The flavor ([5]; Acai, 400 ppm mogroside) was “jammy, slight tannic”, the flavor ([5]; Acai, 500 ppm mogroside) was “jammy, no tannin” and the flavor ([5]; Acai, 600 ppm mogroside) was “jammy, sweet after taste;; also recorded: high intensity flavor”. For the same substance, the flavor ([5]; Acai, 700 ppm mogroside) was “sweet”, the flavor ([5]; Acai, 800 ppm mogroside) was “too sweet” and the flavor ([5]; acai products, 800 ppm mogroside) was “strong, high-intensity sweet flavor”. For the same substance, the “effect on bitterness and off-flavor of acai” value ([5]; mogroside added to acai berry puree) was “masked the bitterness and off-flavor notes”, the flavor [6] was “sweet coffee flavor” and the flavor ([7]; 9.3 g Hominex/100 ml water + 200 ppm mogroside) was “much less so, but still; also recorded: bitter & slightly floury”. The flavor ([7]; 9.3 g Hominex/100 ml water + 300 ppm mogroside) was “drinkable”, the flavor ([7]; 9.3 g Hominex/100 ml water + 400 ppm mogroside) was “tasteless” and the flavor ([7]; 9.3 g Hominex/100 ml water + 500 ppm mogroside) was “tasteless”. For the same substance, the flavor ([7]; 9.3 g Hominex/100 ml water + 600 ppm mogroside) was “slight strange taste”, the flavor ([7]; 9.3 g Hominex/100 ml water + 700 ppm mogroside) was “hint of off-note” and the flavor ([7]; 9.3 g Hominex/100 ml water + 800 ppm mogroside) was “off-flavored”. The flavor ([7]; 10 g Hominex/230 g water + 200 ppm mogroside (without: bad aftertaste)) was “drinkable”, the “off-flavors, chalkiness, pastiness and bitterness compared to the unmodified beverage” value ([7]; 200 ppm mogroside) was “reduced” and the “off-flavors, chalkiness, pastiness and bitterness compared to the unmodified beverage” value ([7]; 300 ppm mogroside) was “essentially eliminated”. For the same substance, the mogroside-associated off flavor ([7]; 800 ppm mogroside) was “pronounced”, the mogroside-associated off flavor ([7]; around 600 ppm mogroside) was “began to develop” and the flavor ([8]; plain + 100 ppm mogroside (plain: mild sour, mild sweet, very mild aftermath)) was “no difference from plain”. For the same substance, the flavor ([8]; plain + 200 ppm mogroside) was “mild sour, sweet, high”, the flavor ([8]; plain + 300 ppm mogroside) was “sweet, hint of sour,; also recorded: aftertaste of bitterness” and the flavor ([8]; plain + 400 ppm mogroside) was “very sweet, no sour,; also recorded: hint of bitterness”. The flavor ([8]; plain + 600 ppm mogroside) was “too sweet”, the flavor ([9]; 50% glycerine solution + mogroside (without: biting)) was “sweet” and the “effect on astringent or biting taste of glycerine” value ([9]; mogroside added to glycerine-water mixtures) was “greatly reduces or even eliminates the astringent or biting taste”. For the same substance, the flavor [10] was “semi-sweet; no; also recorded: beaniness”, the flavor [11] was “sweet” and the flavor [12] was “semi-sweet; no; also recorded: beaniness”. The “taste description by six blind tasters” value ([13]; 150-250 ppm, puree poached to 74° C., control livery, organy, bloody) was “slightly sweet, “bologna-like,” and “bland.””, the “level preferred by the majority of testers” value ([13]; in vivo) was 200 ppm and the preference of testers ([13]; samples with mogroside vs control puree, six individuals) was “All testers preferred the samples with mogroside”. For the same substance, the flavor and texture ([14]; + 5% Acai + 5% glycerin + 200 ppm mogroside) was “not too much flavor,; also recorded: slightly soft”, the flavor and texture ([14]; + 5% Acai + 5% glycerin + 300 ppm mogroside) was “soft, sweet” and the flavor and texture ([14]; + 5% Acai + 5% glycerin + 400 ppm mogroside) was “sweet, not much flavor,; also recorded: some berry, soft”. The flavor and texture ([14]; + 10% Acai + 5% glycerin + 200 ppm mogroside) was “berry notes, slightly soft”, the flavor and texture ([14]; + 10% Acai + 5% glycerin + 300 ppm mogroside) was “creamy” and the flavor and texture ([14]; + 10% Acai + 5% glycerin + 400 ppm mogroside) was “sweet, jammy, creamy,; also recorded: a bit too sweet”. The flavor and texture ([14]; + 10% Acai + 10% glycerin + 300 ppm mogroside) was “creamy”, the flavor and texture ([14]; + 10% Acai + 10% glycerin + 400 ppm mogroside) was “sweet, jammy, creamy,; also recorded: a bit too sweet” and the flavor and texture ([14]; plain + glycerine + 300 ppm mogroside (plain + glycerine: tannic, not sweet)) was “soft and creamy, sweet,; also recorded: berry, mild; best texture”. The flavor and texture ([14]; plain ice cream + 300 ppm mogroside (only)) was “plain, gummy”, the flavor [15] was “sweet” and the “Difference testing: No” value [16, 18] was 0. The “Difference testing: Yes” value [16, 18] was 6, the “Preference testing: Control” value ([16]; number preferring control without mogroside) was 1 and the “Preference testing: Test” value ([16]; number preferring test drink with 400 ppm mogroside) was 6. For the same substance, the flavor [17] was “less so, but still floury”.

From patent publication US20200214324A1, “Masking Bitter Flavors” (Board of Supervisors of Louisiana State University and …, priority 2009, published 2020)
